# Several values for one entry are separate records, joined by “and”; a condition that tells them apart may be missing. Equal values may be shown once.
# Legend:
# Type in all cases: physicochemical
# [1] = Solubility in NMP-water binary mixtures; conditions: for solubility at 24 h: thermodynamic from solid
# Protocol: (§1) The calibration curves for each derivative were obtained using successful dilutions of initial stock solutions followed by spectrophotometric measurements of the obtained solutions with decreasing concentration. The concentration ranges for the derivatives 1, 2, and 3 were 0.0081–0.0405 mg/mL, 0.0077–0.0385 mg/mL, and 0.0068–0.017 mg/mL, respectively. Methanol was used both as a solvent, as well as a reference for spectrophotometric measurements. […] The A360 spectrophotometer from AOE Instruments was used for the preparation of the calibration curves. […] Three calibration curves were prepared for each derivative and then averaged.
# (§2) A multi-step procedure was employed in order to find the solubility of the studied derivatives in the selected solvents. First of all, the excess amount of the considered compound was added to test tubes containing either neat solvents or their mixtures with water in different proportions, thus forming binary solvents. Saturated solutions were obtained in this way, placed in a Shaker Incubator ES-20/60 from Biosan, and incubated for 24 h at 298.1 K. The temperature adjustment was possible with a 0.1-degree accuracy, and the variance within a 24 h cycle was 0.5 degrees. The samples were simultaneously mixed at 60 rev/min. After incubation, the samples were filtered with the help of plastic syringes equipped with PTFE filters with 0.22 µm pore size. The obtained filtrates were diluted with methanol in another set of test tubes. In order to determine the mole fractions of a solute in the solution, 1 mL of the filtered samples was weighed in 10 mL volumetric flasks using a RADWAG AS 110 R2.PLUS analytical balance. The samples diluted with methanol were measured spectrophotometrically using the same instrument as was used in the case of calibration curves. The spectra were recorded in the wavelength range of 190–500 nm, and the resolution was 1 nm. Methanol was used if further dilution of the sample was required, and it was also used as a reference for calibrating the spectrophotometer. The absorbance values at 315 nm, 321 nm, and 321 nm were taken into account for derivatives 1, 2, and 3, respectively. Based on the calibration curves, the concentration of the solute in the samples was determined together with its mole fraction. Three separate measurements were conducted, and the final values are the results of averaging them.
# [2] = Solubility in neat solvents, shake-flask with spectrophotometric determination; conditions: for solubility at 24 h: 25 °C, organic solvent or mixture, thermodynamic from solid
# Protocol: as §1, §2
# [3] = Solubility in DMSO-water binary mixtures; conditions: for solubility at 24 h: 25 °C, thermodynamic from solid
# Protocol: as §1, §2
# [4] = neat γ-nonanoic lactone, 298.1 K
structure (smiles),measurement,setting,value
"O=C1Nc2ccc([N+](=O)[O-])cc2C1=NNC(=O)c1ccccc1C(F)(F)F [derivative 1, 2-trifluoromethyl-N′-[5-nitro-2-oxo-1,2-dihydro-3H-indol-3-ylidene]benzohydrazide]",solubility at 24 h,"[1]; NMP-water binary mixture, x*NMP 0.1, 25 °C, aqueous with cosolvent or surfactant or cyclodextrin, x*NMP 0.1, 298.1 K",56.6 mg/mL
same,solubility at 24 h,"[1]; NMP-water binary mixture, x*NMP 0.2, 25 °C, aqueous with cosolvent or surfactant or cyclodextrin, x*NMP 0.2, 298.1 K",111 mg/mL
same,solubility at 24 h,"[1]; NMP-water binary mixture, x*NMP 0.3, 25 °C, aqueous with cosolvent or surfactant or cyclodextrin, x*NMP 0.3, 298.1 K",161 mg/mL
same,solubility at 24 h,"[1]; NMP-water binary mixture, x*NMP 0.4, 25 °C, aqueous with cosolvent or surfactant or cyclodextrin, x*NMP 0.4, 298.1 K",205 mg/mL
same,solubility at 24 h,"[1]; NMP-water binary mixture, x*NMP 0.7, 25 °C, aqueous with cosolvent or surfactant or cyclodextrin, x*NMP 0.7, 298.1 K",285 mg/mL
same,solubility at 24 h,"[1]; NMP-water binary mixture, x*NMP 0.8, 25 °C, aqueous with cosolvent or surfactant or cyclodextrin, x*NMP 0.8, 298.1 K",294 mg/mL
same,solubility at 24 h,"[1]; NMP-water binary mixture, x*NMP 0.9, 25 °C, aqueous with cosolvent or surfactant or cyclodextrin, x*NMP 0.9, 298.1 K",282 mg/mL
same,solubility at 24 h,"[1]; NMP-water binary solvent, 25 °C, aqueous with cosolvent or surfactant or cyclodextrin, x*NMP 0.5, 298.1 K",248 mg/mL
same,solubility at 24 h,"[1]; NMP-water binary solvent, 25 °C, aqueous with cosolvent or surfactant or cyclodextrin, x*NMP 0.6, 298.1 K",272 mg/mL
same,solubility at 24 h,"[1]; NMP-water series, x*NMP 1.0, 25 °C, organic solvent or mixture, x*NMP 1.0, 298.1 K",265 mg/mL
same,solubility x,"[1]; x*NMP 0.1, 298.1 K",3.86 (0.05) × 10^−3 mole fraction
same,solubility x,"[1]; x*NMP 0.2, 298.1 K",1.05 (0.01) × 10^−2 mole fraction
same,solubility x,"[1]; x*NMP 0.3, 298.1 K",1.98 (0.04) × 10^−2 mole fraction
same,solubility x,"[1]; x*NMP 0.4, 298.1 K",3.09 (0.04) × 10^−2 mole fraction
same,solubility x,"[1]; x*NMP 0.6, 298.1 K",5.77 (0.07) × 10^−2 mole fraction
same,solubility x,"[1]; x*NMP 0.7, 298.1 K",6.87 (0.11) × 10^−2 mole fraction
same,solubility x,"[1]; x*NMP 0.8, 298.1 K",7.76 (0.08) × 10^−2 mole fraction
same,solubility x,"[1]; x*NMP 0.9, 298.1 K",7.96 (0.10) × 10^−2 mole fraction
same,solubility x,"[1]; x*NMP 1.0, 298.1 K",8.06 (0.25) × 10^−2 mole fraction
same,solubility at 24 h,"[2]; neat DMF, 298.1 K",119000 µg/mL
same,solubility at 24 h,"[2]; neat DMP, 298.1 K",940 µg/mL
same,solubility at 24 h,"[2]; neat DMSO, 298.1 K",327000 µg/mL
same,solubility at 24 h,"[2]; neat NMP, 298.1 K",265000 µg/mL
same,solubility at 24 h,"[2]; neat acetone, 298.1 K",4390 µg/mL
same,solubility at 24 h,"[2]; neat acetonitrile, 298.1 K",2020 µg/mL
same,solubility at 24 h,"[2]; neat cyrene, 298.1 K",1620 µg/mL
same,solubility at 24 h,"[2]; neat diglyme, 298.1 K",2520 µg/mL
same,solubility at 24 h,"[2]; neat dioxane, 298.1 K",4170 µg/mL
same,solubility at 24 h,"[2]; neat ethyl lactate, 298.1 K",1250 µg/mL
same,solubility at 24 h,"[2]; neat methanol, 298.1 K",1510 µg/mL
same,solubility at 24 h,"[2]; neat tetraglyme, 298.1 K",4620 µg/mL
same,solubility at 24 h,"[2]; neat triglyme, 298.1 K",950 µg/mL
same,solubility at 24 h,"[2]; neat γ-heptalactone, 298.1 K",1780 µg/mL
same,solubility at 24 h,[2]; [4],1160 µg/mL
same,solubility at 24 h,[2]; neat 1-butanol,470 µg/mL
same,solubility x,"[2]; neat 1-butanol, 298.1 K",1.11 (0.04) × 10^−4 mole fraction
same,solubility at 24 h,[2]; neat 1-propanol,610 µg/mL
same,solubility x,"[2]; neat 1-propanol, 298.1 K",1.19 (0.05) × 10^−4 mole fraction
same,solubility at 24 h,[2]; neat 4FM,7220 µg/mL
same,solubility x,"[2]; neat 4FM, 298.1 K",1.88 (0.04) × 10^−3 mole fraction
same,solubility x,"[2]; neat DMF, 298.1 K",2.66 × 10^−2 mole fraction and 2.66 (0.55) × 10^−2 mole fraction
same,solubility x,"[2]; neat DMP, 298.1 K",2.96 (0.11) × 10^−4 mole fraction
same,solubility x,"[2]; neat DMSO, 298.1 K",7.70 × 10^−2 mole fraction and 7.70 (0.11) × 10^−2 mole fraction
same,solubility x,"[2]; neat NMP, 298.1 K",8.06 × 10^−2 mole fraction and 8.06 (0.25) × 10^−2 mole fraction
same,solubility x,"[2]; neat acetone, 298.1 K",8.38 (0.16) × 10^−4 mole fraction
same,solubility x,"[2]; neat acetonitrile, 298.1 K",2.76 (0.12) × 10^−4 mole fraction
same,solubility x,"[2]; neat cyrene, 298.1 K",4.37 (0.09) × 10^−4 mole fraction
same,solubility x,"[2]; neat diglyme, 298.1 K",9.43 (0.90) × 10^−4 mole fraction
same,solubility x,"[2]; neat dioxane, 298.1 K",9.21 (0.21) × 10^−4 mole fraction
same,solubility at 24 h,[2]; neat ethanol,820 µg/mL
same,solubility x,"[2]; neat ethanol, 298.1 K",1.26 (0.04) × 10^−4 mole fraction
same,solubility x,"[2]; neat ethyl lactate, 298.1 K",3.75 (0.10) × 10^−4 mole fraction
same,solubility x,"[2]; neat methanol, 298.1 K",1.60 (0.05) × 10^−4 mole fraction
same,solubility x,"[2]; neat triglyme, 298.1 K",4.48 (0.06) × 10^−4 mole fraction
same,solubility x,"[2]; neat γ-heptalactone, 298.1 K",5.92 (0.08) × 10^−4 mole fraction
same,solubility x,[2]; [4],4.81 (0.06) × 10^−4 mole fraction
same,solubility at 24 h,[2]; neat ε-caprolactone,1600 µg/mL
same,solubility x,"[2]; neat ε-caprolactone, 298.1 K",4.42 (0.09) × 10^−4 mole fraction
same,solubility at 24 h,"[3]; DMSO-water binary mixture, aqueous with cosolvent or surfactant or cyclodextrin, x*DMSO 0.1, 298.1 K",88 mg/mL
same,solubility at 24 h,"[3]; DMSO-water binary mixture, aqueous with cosolvent or surfactant or cyclodextrin, x*DMSO 0.2, 298.1 K",179 mg/mL
same,solubility at 24 h,"[3]; DMSO-water binary mixture, aqueous with cosolvent or surfactant or cyclodextrin, x*DMSO 0.3, 298.1 K",219 mg/mL
same,solubility at 24 h,"[3]; DMSO-water binary mixture, aqueous with cosolvent or surfactant or cyclodextrin, x*DMSO 0.4, 298.1 K",261 mg/mL
same,solubility at 24 h,"[3]; DMSO-water binary mixture, aqueous with cosolvent or surfactant or cyclodextrin, x*DMSO 0.5, 298.1 K",305 mg/mL
same,solubility at 24 h,"[3]; DMSO-water binary mixture, aqueous with cosolvent or surfactant or cyclodextrin, x*DMSO 0.6, 298.1 K",336 mg/mL
same,solubility at 24 h,"[3]; DMSO-water binary mixture, aqueous with cosolvent or surfactant or cyclodextrin, x*DMSO 0.7, 298.1 K",356 mg/mL
same,solubility at 24 h,"[3]; DMSO-water binary mixture, aqueous with cosolvent or surfactant or cyclodextrin, x*DMSO 0.8, 298.1 K",363 mg/mL
same,solubility at 24 h,"[3]; DMSO-water binary mixture, aqueous with cosolvent or surfactant or cyclodextrin, x*DMSO 0.9, 298.1 K",355 mg/mL
same,solubility at 24 h,"[3]; DMSO-water series, organic solvent or mixture, x*DMSO 1.0, 298.1 K",327 mg/mL
same,solubility x,"[3]; x*DMSO 0.1, 298.1 K",5.27 (0.10) × 10^−3 mole fraction
same,solubility x,"[3]; x*DMSO 0.2, 298.1 K",1.47 (0.02) × 10^−2 mole fraction
same,solubility x,"[3]; x*DMSO 0.3, 298.1 K",2.25 (0.03) × 10^−2 mole fraction
same,solubility x,"[3]; x*DMSO 0.4, 298.1 K",3.25 (0.05) × 10^−2 mole fraction
same,solubility x,"[3]; x*DMSO 0.5, 298.1 K",4.46 (0.08) × 10^−2 mole fraction
same,solubility x,"[3]; x*DMSO 0.6, 298.1 K",5.69 (0.15) × 10^−2 mole fraction
same,solubility x,"[3]; x*DMSO 0.7, 298.1 K",6.72 (0.14) × 10^−2 mole fraction
same,solubility x,"[3]; x*DMSO 0.8, 298.1 K",7.60 (0.10) × 10^−2 mole fraction
same,solubility x,"[3]; x*DMSO 0.9, 298.1 K",8.00 (0.14) × 10^−2 mole fraction
same,solubility x,"[3]; x*DMSO 1.0, 298.1 K",7.70 (0.11) × 10^−2 mole fraction
